“Also recorded” adds a separate entry of the source. Where a SMILES comes first, the peptide text is derived from it. The star is where a group is joined. Cbz = O=C(OCc1ccccc1)*; CH2F = FC*
Tests used:
[1] = test system: CC[C@H](C)[C@H](NC(=O)[C@@H](NC(=O)OCc1ccccc1)C(C)C)C(=O)N[C@@H](CCCNC(=N)N)C(=O)Nc1ccc2c(C)cc(=O)oc2c1; assay: purified protein, by the assay type; conditions: other: FhCB3; substrate 2000–4 μM, optimum pH; ± standard deviation; pH 7.0; 37.0 °C
Method: (§3) To determine the kinetic constants, Kcat, KM and Kcat/KM of the activated peptidases against the Z-Phe-Arg-AMC, Z-Gly-Pro-Arg-AMC and Z-Val-Ile-Arg-AMC substrates were used at concentrations of 2000–4 μM over a series of 10 dilutions using enzymes, buffer and assay conditions as described above. The kinetic constants, KM and Vmax, were calculated using the Michaelis–Menten equation (Equation (1)) in a non-linear regression analysis of initial reaction velocity against substrate concentration (built into GraphPad Prism 5). The value of KM can then be fitted to Equation (2) to determine the catalytic constant Kcat. (1) ν=d[P]/dt=Vmax[S]/KM+[S] where ν is the initial reaction velocity, [P] is the concentration of the formed product, [S] is the substrate concentration, Vmax is the maximum rate achieved by the system and KM is the Michaelis–Menten constant, which represents the concentration of substrate at which the reaction has a rate equal to half of Vmax. (2) ν=Kcat[Et]{}[S]/KM+[S] where [Et] is the enzyme concentration and Kcat is the catalytic constant, representing the measure of substrate molecules converted to product by enzyme per second.

[2] = test system: Cc1cc(=O)oc2cc(NC(=O)[C@H](CCCNC(=N)N)NC(=O)[C@@H]3CCCN3C(=O)CNC(=O)OCc3ccccc3)ccc12; assay: purified protein, by the assay type; conditions: substrate 2000–4 μM, optimum pH, ± standard deviation, pH 7.0, 37.0 °C
Method: as §3

[3] = test system: Cc1cc(=O)oc2cc(NC(=O)[C@H](CCCNC(=N)N)NC(=O)[C@H](Cc3ccccc3)NC(=O)OCc3ccccc3)ccc12; assay: purified protein, by the assay type; conditions: substrate 2000–4 μM, optimum pH, ± standard deviation, pH 7.0, 37.0 °C
Method: as §3

cathepsin L1 (HsCL1) = target: T1, cathepsin L1 (HsCL1) (Homo sapiens, UniProt P07711); assay: Inhibitor screen against human cathepsin L1 control; assay type: biochemical
T1 construct: purchased Sigma-Aldrich; host or cells: human embryonic kidney cells
T1 sequence (P07711 114-333): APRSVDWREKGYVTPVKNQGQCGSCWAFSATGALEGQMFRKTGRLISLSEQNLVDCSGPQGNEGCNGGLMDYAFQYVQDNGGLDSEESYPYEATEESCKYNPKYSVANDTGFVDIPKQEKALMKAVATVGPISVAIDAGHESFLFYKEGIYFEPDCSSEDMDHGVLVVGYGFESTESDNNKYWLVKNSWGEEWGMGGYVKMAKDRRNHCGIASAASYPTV
Excerpt: The Schistosoma mansoni cathepsin B1 (SmCB1) was also produced in our laboratory using P. pastoris as described above. The human cathepsin B (HsCB) and cathepsin L1 (HsCL1) were produced in human embryonic kidney cells (Sigma-Aldrich).
(§1) Commercially available inhibitors of cathepsin B (Ca074 and Ca074-OMe), cathepsin L (L, L1, LII, LIII and LIV), cathepsin K (KI, KII and KIII) and cathepsin S were purchased from Merck Millipore (Cork, Ireland; Supplementary Figure S2). The broad-spectrum papain peptidase inhibitor Z-Phe-Ala-FMK was purchased from Enzo Life Sciences (Exeter, UK). These were used to determine and compare the inhibition constant (Ki) against the recombinant FhCBs and FhCL3. All the assays were carried out in 0.1 M C-P buffer with 1 mM DTT and 0.01% Brij® L23, at the pH corresponding to the optimum for each enzyme in a total 200 µL reaction volume. The peptidases (140 nM) were pre-incubated with the inhibitor (1000-15 nM) at room temperature, for 30 min, before starting the reaction by the addition of the substrate that was optimal for each enzyme (FhCB1, Z-Phe-Arg-AMC; FhCB2 and FhCB3, Z-Val-Ile-Arg-AMC; FhCL3, Z-Gly-Pro-Arg-AMC). Substrate concentrations were equal to KM (shown in Table 1) and the apparent inhibition constant (Ki^app) values were calculated with GraphPad Prism 5, using the Morrison equation for tight binding inhibition (Equation (3)). For competitive inhibitors, such as those used in this study, Ki^app was fitted to a second equation (Equation (4)) from which Ki can be determined. (3) vi/vo=1−([E])+[I]+Kiapp)−([E]+[I]+Kiapp)^2−4[E][I] /2[E] (4) Kiapp=Ki(1+[S]/KM)
A panel of 12 commercially available cysteine peptidase inhibitors that preferentially target mammalian cathepsin B (Ca074 and Ca074-OMe), cathepsin L (L, L1, LII, LIII and LIV) cathepsin S (S) and cathepsin K (KI, KII and KIII) were screened against the FhCBs, FhCL3 and, as controls, HsCB and HsCL1. The broad-range cysteine peptidase inhibitor Z-Phe-Ala-FMK was also included (Figure 5).
Figure 5 Profile of inhibition of FhCB1, FhCB2, FhCB3 and FhCL3. Commercially available inhibitors of cathepsin B (Ca074 and Ca07a-OMe), cathepsin L (L, L1, LII, LIII and LIV), cathepsin K (KI, KII and KIII), cathepsin S and the broad-spectrum papain peptidase inhibitor Z-Phe-Ala-FMK (A–L) were used to determine and compare the inhibition constant against recombinants FhCB1, FhCB2, FhCB3, FhCL3, HsCB and HsCL1. Activity is represented as the percentage of enzymatic activity observed by hydrolysis of a fluorogenic quenched peptide substrate following a pre-incubation with inhibitor in relation to the activity of the enzyme alone. Error bars indicate standard deviation of three replicates.

FhCL3 = FhCL3 (Fasciola hepatica, UniProt A0A879R2T5); assay: Inhibition of recombinant FhCL3, fluorogenic substrate assay (Z-Gly-Pro-Arg-AMC); assay type: biochemical; conditions: for inhibition of enzymatic activity (inhibitor screen, Figure 5), in words: FhCL3, inhibitor 1000-15 nM
Chain of FhCL3 (A0A879R2T5 entry or part of it): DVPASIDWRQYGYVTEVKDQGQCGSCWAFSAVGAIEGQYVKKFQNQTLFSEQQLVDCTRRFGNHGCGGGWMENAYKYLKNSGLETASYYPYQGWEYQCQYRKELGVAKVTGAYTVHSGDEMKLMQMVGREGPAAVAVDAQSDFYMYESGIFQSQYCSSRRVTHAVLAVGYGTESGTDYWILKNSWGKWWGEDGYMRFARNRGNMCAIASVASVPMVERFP
Method: (§2) Recombinant peptidases were assayed for enzymatic activity using a fluorogenic substrate assay. The reactions were carried out in 0.1 M C-P buffer (pH 7.0) with 1 mM DTT in a final volume of 200 μL, in a black 96-well plate. Each well contained activated enzyme (140 nM) and 20 μM fluorogenic substrate, which was added to start the reaction. All assays were run in triplicate at 37 °C for 1 h. Enzyme activity was monitored by rate of hydrolysis and subsequent release of the AMC group on the synthetic peptide substrates at an excitation wavelength of 370 nm and an emission wavelength of 460 nm, as relative fluorescence units (RFU), in a PolarStar Omega Spectrophotometer (BMG Labtech, Aylesbury, UK). All data were plotted and analysed using MARS Data Analysis Software (BMG Labtech, UK) and GraphPad Prism version 5.
as §1

FhCB2 = FhCB2 (Fasciola hepatica, UniProt A5X493); assay: Inhibition of recombinant FhCB2, fluorogenic substrate assay (Z-Val-Ile-Arg-AMC); assay type: biochemical; conditions: for inhibition of enzymatic activity (inhibitor screen, Figure 5), in words: FhCB2, inhibitor 1000-15 nM
Chain of FhCB2 (A5X493 entry or part of it): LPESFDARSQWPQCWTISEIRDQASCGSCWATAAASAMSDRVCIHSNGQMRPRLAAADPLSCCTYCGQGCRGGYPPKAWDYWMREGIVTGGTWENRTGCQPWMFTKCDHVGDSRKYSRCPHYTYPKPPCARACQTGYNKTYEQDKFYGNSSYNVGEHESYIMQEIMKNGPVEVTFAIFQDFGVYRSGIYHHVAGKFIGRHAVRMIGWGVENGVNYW
Method: as §2, §1

FhCB3 = FhCB3 (Fasciola hepatica, UniProt A7UNB2); assay: Inhibition of recombinant FhCB3, fluorogenic substrate assay (Z-Val-Ile-Arg-AMC); assay type: biochemical; conditions: for inhibition of enzymatic activity (inhibitor screen, Figure 5), in words: FhCB3, inhibitor 1000-15 nM
Chain of FhCB3 (A7UNB2 entry or part of it): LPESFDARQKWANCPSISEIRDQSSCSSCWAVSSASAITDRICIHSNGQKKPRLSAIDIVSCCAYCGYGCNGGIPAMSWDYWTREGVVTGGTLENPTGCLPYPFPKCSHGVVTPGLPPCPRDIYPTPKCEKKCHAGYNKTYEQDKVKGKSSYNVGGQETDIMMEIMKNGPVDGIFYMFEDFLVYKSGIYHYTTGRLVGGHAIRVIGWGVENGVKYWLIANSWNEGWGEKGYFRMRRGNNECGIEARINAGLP
Method: as §2, §1

FhCB1 = FhCB1 (Fasciola hepatica, UniProt Q8I7B2); assay: Inhibition of recombinant FhCB1, fluorogenic substrate assay (Z-Phe-Arg-AMC); assay type: biochemical; conditions: for inhibition of enzymatic activity (inhibitor screen, Figure 5), in words: FhCB1, inhibitor 1000-15 nM
Chain of FhCB1 (Q8I7B2 entry or part of it): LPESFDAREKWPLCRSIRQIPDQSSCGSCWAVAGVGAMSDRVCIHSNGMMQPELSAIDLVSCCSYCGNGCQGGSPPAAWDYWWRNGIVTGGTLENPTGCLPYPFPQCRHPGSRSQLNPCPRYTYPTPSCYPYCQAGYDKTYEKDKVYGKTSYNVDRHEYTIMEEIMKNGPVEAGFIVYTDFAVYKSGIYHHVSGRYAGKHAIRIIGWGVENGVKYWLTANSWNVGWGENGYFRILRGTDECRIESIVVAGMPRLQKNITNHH
Method: as §2, §1

Compound	inhibition of enzymatic activity (inhibitor screen, Figure 5), in words (cathepsin L1 (HsCL1))	inhibition of enzymatic activity (inhibitor screen, Figure 5), in words (FhCL3)	inhibition of enzymatic activity (inhibitor screen, Figure 5), in words (FhCB2)	inhibition of enzymatic activity (inhibitor screen, Figure 5), in words (FhCB3)	inhibition of enzymatic activity (inhibitor screen, Figure 5), in words (FhCB1)	other results
FhCB3 (Fasciola hepatica)						Km [1]: 42 ± 4 µM; kcat [1]: 0.1 ± 0.004 s⁻¹; kcat/Km [1]: 2266 M^-1S^-1; Km ([2]; other: FhCB3): 40 ± 4 µM; kcat ([2]; other: FhCB3): 0.02 ± 0.002 s⁻¹; kcat/Km ([2]; other: FhCB3): 579 M^-1S^-1; Km ([3]; other: FhCB3): 27 ± 2 µM; kcat ([3]; other: FhCB3): 0.05 ± 0.007 s⁻¹; kcat/Km ([3]; other: FhCB3): 1708 M^-1S^-1
CC[C@H](C)[C@H](NS(=O)(=O)c1cccc2ccccc12)C(=O)N[C@H](C=O)Cc1c[nH]c2ccccc12 [LIV]	specificity for HsCL1 over HsCBs					
COc1ccc(C(=O)ONC(=O)CNC(=O)C(Cc2ccccc2)NC(=O)OCc2ccccc2)cc1 (centres unmarked) [LIII]	specificity for HsCL1 over HsCBs					
CC(C)C[C@H](NC(=O)OCc1ccccc1)C(=O)NNC(=O)NNC(=O)[C@H](CC(C)C)NC(=O)C(Cc1ccccc1)NC(=O)OC(C)(C)C (some centres unmarked) [KII]		reduced	no effect; also recorded: generally poor inhibitors; also recorded: not inhibited	abrogated the activity; also recorded: reduced	weak inhibitors; also recorded: generally poor inhibitors	Ki (FhCL3; recombinant FhCL3 140 nM, 30 min pre-incubation, substrate Z-Gly-Pro-Arg-AMC at KM, optimum pH, ± SEM, read-out: inhibition constant Ki): 0.7 ± 0.19 nM; Ki (FhCB2; recombinant FhCB2 140 nM, 30 min pre-incubation, substrate Z-Val-Ile-Arg-AMC at KM, optimum pH, ± SEM, read-out: inhibition constant Ki): > 1000 nM; Ki (FhCB3; recombinant FhCB3 140 nM, 30 min pre-incubation, substrate Z-Val-Ile-Arg-AMC at KM, optimum pH, ± SEM, read-out: inhibition constant Ki): 227 ± 28.3 nM; Ki (FhCB1; recombinant FhCB1 140 nM, 30 min pre-incubation, substrate Z-Phe-Arg-AMC at KM, optimum pH, ± SEM, read-out: inhibition constant Ki): 466 ± 40.6 nM
FhCL3 (Fasciola hepatica)						Km ([2]; other: FhCL3): 27 ± 2 µM; kcat ([2]; other: FhCL3): 0.5 ± 0.07 s⁻¹; kcat/Km ([2]; other: FhCL3): 17,960 M^-1S^-1
FhCB1 (Fasciola hepatica)						Km ([3]; other: FhCB1): 69 ± 5 µM; kcat ([3]; other: FhCB1): 1.0 ± 0.2 s⁻¹; kcat/Km ([3]; other: FhCB1): 13,596 M^-1S^-1
O=C(NCc1ccccc1)C(Cc1ccccc1)NC(=O)C1OC1C(=O)NCCc1ccc(O)cc1 (centres unmarked) [L]	specificity for HsCL1 over HsCBs	significantly reduced	did not inhibit	significantly reduced	did not inhibit	
O=C(NC(Cc1ccccc1)C(=O)NC(Cc1ccccc1)C(=O)CF)OCc1ccccc1 (stereo not drawn) [Inhibitor L1] (Cbz-Phe-Phe-CH2F; configuration not given here)	specificity for HsCL1 over HsCBs			most effective at blocking	most effective at blocking	
CC(C)C[C@H](NC(=O)OCc1ccccc1)C(=O)NNC(=O)NNC(=O)[C@H](CC(C)C)NC(=O)C(N)Cc1ccccc1 (some centres unmarked) [KIII]		reduced	no effect; also recorded: generally poor inhibitors; also recorded: not inhibited	abrogated the activity; also recorded: reduced	weak inhibitors; also recorded: generally poor inhibitors	
CC(C)C[C@H](NC(=O)OCc1ccccc1)C(=O)NCC(=O)CNC(=O)[C@H](CC(C)C)NC(=O)OCc1ccccc1 [KI]		reduced	generally poor inhibitors; also recorded: not inhibited	reduced	generally poor inhibitors	

Reference: publication PMC8698070, “The Zoonotic Helminth Parasite Fasciola hepatica: Virulence-Associated Cathepsin B and Cathepsin L Cysteine Peptidases Secreted by Infective Newly Excysted Juveniles (NEJ)” (Animals : an Open Access Journal from MDPI, 2021)
